Experimental data reported in PMC9101642 (Molecules, 2022).
Where two headings read alike, the source gives them in different places. Marks after values point to notes of the source that are not given here.

What was measured:
ERβ = ERβ (Homo sapiens, UniProt Q92731); experiment: Fluorescence polarization competition assay: antagonistic potency and relative binding affinity; conditions: for Ki: calculated antagonistic (inhibitory) constant, read-out: Ka ERβ; for IC50: concentration that antagonizes 50% of ERβ signaling activity, read-out: ERβ (IC50 nM); for logRBA ERβ: log of % relative binding affinity, estradiol = 100%
MCF-7 cell lines = experiment: MTT antiproliferative assay; type: cell-based, human; conditions: for IC50: Homo sapiens, read-out: MCF-7 (IC50 nM); for MCF-7 antiproliferative potency, fold higher than Ral / MCF-7 antiproliferative potency, fold lower than 3DPQ-12: ratio of IC50 values
MDA-MB-231 cell lines = experiment: MTT antiproliferative assay; type: cell-based, human; conditions: Homo sapiens, read-out: MDA-MB-231 (IC50 nM)
ERα = molecular target: T1, ERα (Homo sapiens, UniProt P03372); experiment: ERα down-regulation immunofluorescence assay in MCF-7; type: cell-based; conditions: ERα downregulation measured in MCF-7; read-out: MCF-7 DR (IC50 nM)
T1 sequence (P03372 1-595): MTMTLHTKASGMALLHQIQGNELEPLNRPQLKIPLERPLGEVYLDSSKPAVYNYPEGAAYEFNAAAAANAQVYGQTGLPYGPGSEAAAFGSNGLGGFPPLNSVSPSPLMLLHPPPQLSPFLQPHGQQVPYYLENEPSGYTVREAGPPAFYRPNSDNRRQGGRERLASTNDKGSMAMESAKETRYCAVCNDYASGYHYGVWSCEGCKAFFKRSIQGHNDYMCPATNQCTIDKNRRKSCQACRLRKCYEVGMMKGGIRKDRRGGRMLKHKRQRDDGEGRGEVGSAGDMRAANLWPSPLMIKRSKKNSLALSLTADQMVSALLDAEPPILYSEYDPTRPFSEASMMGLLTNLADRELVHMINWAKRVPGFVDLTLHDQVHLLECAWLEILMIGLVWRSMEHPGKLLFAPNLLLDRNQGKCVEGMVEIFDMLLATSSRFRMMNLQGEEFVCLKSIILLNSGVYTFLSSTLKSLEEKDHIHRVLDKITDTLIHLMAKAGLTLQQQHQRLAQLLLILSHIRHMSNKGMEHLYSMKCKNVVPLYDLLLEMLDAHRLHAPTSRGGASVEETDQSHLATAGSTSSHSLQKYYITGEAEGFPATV

MCF-7 cells = experiment: Cell cycle distribution by flow cytometry; type: cell-based, human; conditions: 24 h
[1] = Serum biochemical markers after treatment of MNU-induced rats; type: in vivo, Wistar rats; set-up: TBC: unit not given here; conditions: for ALP (A/L) / ALT (A/L) / AST (U/L) / γ-GT (U/L): serum; for TBC: total bilirubin content
Outline: (§1)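 Mammary tumours induced in rats by MNU 50 mg/kg i.p. at day 50; after two weeks, compounds given orally at 5 or 50 mg/kg once daily for six weeks. Serum AST, ALT (340 nm), ALP (405 nm) and bilirubin measured; liver homogenate GSH, CAT, MDA by colorimetry; plasma binding by ultrafiltration at 37°C with BCA protein read-out.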

[2] = Liver oxidative stress markers after treatment of MNU-induced rats; type: in vivo, Wistar rats; set-up: CAT: unit not given here; conditions: liver; for CAT: catalase activity; for GSH: reduced glutathione; for SOD (U/mg): superoxide dismutase activity; for TP: total protein content
Outline: as §1

[3] = test system: MNU-induced breast cancer tissue; experiment: Histopathology of breast sections; type: in vivo, Wistar rats
Outline: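 Rats with MNU-induced breast cancer were given selected leads at two concentrations. Breast tissue was examined histopathologically for lobuloalveolar units and epithelial changes, with slides photographed at 200x.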

[4] = Lipophilicity by shake-flask method; conditions: pH 7.4
[5] = Pharmacokinetics study, oral bioavailability; conditions: rat
[6] = MTT antiproliferative assay (neutral control); conditions: human

ERβ, sequence (Q92731 whole entry): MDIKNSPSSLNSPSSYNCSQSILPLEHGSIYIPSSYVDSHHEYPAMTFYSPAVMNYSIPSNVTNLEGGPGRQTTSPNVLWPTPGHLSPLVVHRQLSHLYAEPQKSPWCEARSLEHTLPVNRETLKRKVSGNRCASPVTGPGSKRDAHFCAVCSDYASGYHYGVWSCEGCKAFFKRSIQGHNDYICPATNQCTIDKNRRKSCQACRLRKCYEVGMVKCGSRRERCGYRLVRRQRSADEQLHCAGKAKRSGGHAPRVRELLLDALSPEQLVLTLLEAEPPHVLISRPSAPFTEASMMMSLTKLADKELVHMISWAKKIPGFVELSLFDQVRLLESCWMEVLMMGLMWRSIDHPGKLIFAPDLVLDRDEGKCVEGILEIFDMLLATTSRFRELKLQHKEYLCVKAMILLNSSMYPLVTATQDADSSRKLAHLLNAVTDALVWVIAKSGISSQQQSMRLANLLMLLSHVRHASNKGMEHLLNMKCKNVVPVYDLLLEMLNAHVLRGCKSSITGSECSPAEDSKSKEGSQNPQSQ

| SMILES | Ki (ERβ) [nM] | IC50 (ERβ) [nM] | logRBA ERβ (ERβ) | MCF-7 antiproliferative potency, fold higher than Ral (MCF-7 cell lines) [fold] | MCF-7 antiproliferative potency, fold lower than 3DPQ-12 (MCF-7 cell lines) [fold] | IC50 (ERα) [nM] | Cell Cycle (%) G0/G1 (MCF-7 cells; 0.1 nM) | Cell Cycle (%) G2/M (MCF-7 cells; 0.1 nM) | Cell Cycle (%) S (MCF-7 cells; 0.1 nM) | Cell Cycle (%) G0/G1 (MCF-7 cells; 1 nM) | Cell Cycle (%) G2/M (MCF-7 cells; 1 nM) | Cell Cycle (%) S (MCF-7 cells; 1 nM) | ALP (A/L) ([1]; dose 5 mg/kg) | ALT (A/L) ([1]; dose 5 mg/kg) | AST (U/L) ([1]; dose 5 mg/kg) | γ-GT (U/L) ([1]; dose 5 mg/kg) | ALP (A/L) ([1]; dose 50 mg/kg) | ALT (A/L) ([1]; dose 50 mg/kg) | AST (U/L) ([1]; dose 50 mg/kg) | γ-GT (U/L) ([1]; dose 50 mg/kg) | also measured |
| --- | --- | --- | --- | --- | --- | --- | --- | --- | --- | --- | --- | --- | --- | --- | --- | --- | --- | --- | --- | --- | --- |
| CC(=O)c1cc(C(=O)O[C@@H]2/C=C/C(=O)O[C@@H](O)CCC/C=C/[C@@H]3C[C@H](O)C[C@H]32)ccc1OCCN1CC(C(=O)O)=CCC1=O [Compound 3DPQ-9, 1-(2-(2-acetyl-4-((((1R,2E,6R,10E,11aS,13S,14aR)-6,13-dihydroxy-4-oxo-4,6,7,8,9,11a,12,13,14,14a-decahydro-1H-cyclopenta[f][1]oxacyclotridecin-1-yl)oxy)carbonyl)phenoxy)ethyl)-6-oxo-1,2,5,6-tetrahydropyridine-3-carboxylic acid] | 46.9 | 83.56 ± 0.46 | 0.03 ^†,‡,§ | 1.46 | 1.09 | > 100 | 71.47 ± 0.99 *^,†,‡,§ % | 15.56 ± 2.65 *^,†,‡,§ % | 12.97 ± 1.65 *^,†,‡,§ % | 75.93 ± 152 *^,†,‡,§ % | 10.40 ± 3.54 *^,†,‡,§ % | 13.68 ± 1.74 *^,†,‡,§ % | 125.54±0.21 | 46.58±0.94 | 64.52±0.43 | 10.32 | 139.42±0.31 | 51.95±0.86 | 69.76±0.74 | 12.36±0.53 | IC50 (MCF-7 cell lines; MCF7, growth inhibition, 48 h): 0.62 ± 0.15 nM; IC50 (MDA-MB-231 cell lines; MDA-MB-231, growth inhibition, 48 h): 81.63 ± 0.42 nM; TBC ([1]; dose 5 mg/kg): 22.33; TBC ([1]; dose 50 mg/kg): 24.46; CAT ([2]; dose 5 mg/kg): 10.83±0.46; CAT ([2]; dose 50 mg/kg): 13.32±0.54; TBARS ([2]; dose 5 mg/kg): 0.96 nmol/mg; TBARS ([2]; dose 50 mg/kg): 0.96 ± 0.24 nmol/mg; GSH ([2]; dose 5 mg/kg): 8.66 mg/g; GSH ([2]; dose 50 mg/kg): 8.89 mg/g; SOD (U/mg) ([2]; dose 5 mg/kg): 7.74±0.37 U/mg; SOD (U/mg) ([2]; dose 50 mg/kg): 14.43±0.35 U/mg; TP ([2]; dose 50 mg/kg): 39.43 g/L; breast section histopathology ([3]; 5 mg/kg of bwt): lobuloalveolar unit (LaU) and cuboidal epithelial cells (CE); breast section histopathology ([3]; 50 mg/kg of bwt): lobuloalveolar unit (LaU) and cuboidal epithelial cells (CE); logD at 30 min ([4]; n-octanol/phosphate buffer): 2.02; BIO ([5]; oral 5 mg/kg): 94 ^‡; BIO ([5]; oral 50 mg/kg): 97; IC50 at 48 h ([6]; MRC-5 lung fibroblast cells): > 100 nM |
| CC(=O)c1cc(C(=O)OC2/C=C/C(=O)O[C@@H](O)CCC/C=C/[C@@H]3C[C@H](O)C[C@@H]23)ccc1OCCN1CCC=C(C(=O)O)C1 (stereo partly drawn) [Compound 3DPQ-3, 1-(2-(2-acetyl-4-((((2E,6R,10E,11aS,13S,14aR)-6,13-dihydroxy-4-oxo-4,6,7,8,9,11a,12,13,14,14a-decahydro-1H-cyclopenta[f][1]oxacyclotridecin-1-yl)oxy)carbonyl)phenoxy)ethyl)-1,2,5,6-tetrahydropyridine-3-carboxylic acid] | 42.1 | 74.86 ± 0.14 | 0.08 ^†,‡,§ | 1.43 | 1.11 | > 100 | 72.99 ± 1.32 *^,†,‡,§ % | 18.03 ± 1.65 *^,†,‡,§ % | 8.98 ± 1.64 *^,†,‡,§ % | 75.45 ± 1.53 *^,†,‡,§ % | 14.87 ± 2.43 *^,†,‡,§ % | 9.69 ± 0.94 *^,†,‡,§ % | 87.47±0.21 | 49.84±0.59 | 58.43±0.31 | 10.36±0.45 | 86.65±0.44 | 55.84±0.79 | 61.63±0.47 | 11.64±0.84 | IC50 (MCF-7 cell lines; MCF7, 48 h): 0.61 ± 0.56 nM; IC50 (MDA-MB-231 cell lines; MDA-MB-231, 48 h): 86.63 ± 0.68 nM; TBC ([1]; dose 5 mg/kg): 17.54±0.36; TBC ([1]; dose 50 mg/kg): 20.32; CAT ([2]; dose 5 mg/kg): 17.46±0.82; CAT ([2]; dose 50 mg/kg): 18.32±0.63; TBARS ([2]; dose 5 mg/kg): 0.24 nmol/mg; TBARS ([2]; dose 50 mg/kg): 0.56 ± 0.32 nmol/mg; GSH ([2]; dose 5 mg/kg): 9.15 mg/g; GSH ([2]; dose 50 mg/kg): 9.74 mg/g; SOD (U/mg) ([2]; dose 5 mg/kg): 7.32±0.18 U/mg; SOD (U/mg) ([2]; dose 50 mg/kg): 11.46±0.36 U/mg; TP ([2]; dose 5 mg/kg): 38.32 g/L; TP ([2]; dose 50 mg/kg): 46.47 g/L; breast section histopathology ([3]; 5 mg/kg of bwt): lobuloalveolar unit (LaU) and cuboidal epithelial cells (CE); breast section histopathology ([3]; 50 mg/kg of bwt): lobuloalveolar unit (LaU) and cuboidal epithelial cells (CE); logD at 30 min [4]: 2.07; BIO ([5]; oral 5 mg/kg): 90; BIO ([5]; oral 50 mg/kg): 93; IC50 at 48 h [6]: > 100 nM |
